Assays:
Type in all cases: functional, cell-based
SK-MEL-28 = assay: Antiproliferative activity against human SK-MEL-28 cells assessed as cell growth inhibition measured after 48 hrs by sulforhodamine B assay; details: SK-MEL-28, 48 h
T47D = assay: Antiproliferative activity against human T47D cells assessed as cell growth inhibition measured after 48 hrs by sulforhodamine B assay
SR = assay: Antiproliferative activity against human SR cells assessed as cell growth inhibition measured after 48 hrs by sulforhodamine B assay
SW-620 = assay: Antiproliferative activity against human SW-620 cells assessed as cell growth inhibition measured after 48 hrs by sulforhodamine B assay; details: SW-620, 48 h
RPMI-8226 = assay: Antiproliferative activity against human RPMI-8226 cells assessed as cell growth inhibition measured after 48 hrs by sulforhodamine B assay; details: RPMI-8226, 48 h
SK-MEL-5 = assay: Antiproliferative activity against human SK-MEL-5 cells assessed as cell growth inhibition measured after 48 hrs by sulforhodamine B assay; details: SK-MEL-5, 48 h
BT-549 = assay: Antiproliferative activity against human BT-549 cells assessed as cell growth inhibition measured after 48 hrs by sulforhodamine B assay; details: BT-549, 48 h
K562 = assay: Antiproliferative activity against human K562 cells assessed as cell growth inhibition incubated for 48 hrs by sulforhodamine B assay; details: K562, 48 h
HT-29 = assay: Antiproliferative activity against human HT-29 cells assessed as cell growth inhibition measured after 48 hrs in presence of uridine by SRB assay; details: HT-29, 48 h
TK-10 = assay: Antiproliferative activity against human TK-10 cells assessed as cell growth inhibition measured after 48 hrs by sulforhodamine B assay; details: TK-10, 48 h
UO-31 = assay: Antiproliferative activity against human UO-31 cells assessed as cell growth inhibition measured after 48 hrs by sulforhodamine B assay; details: UO-31, 48 h
NCI-H226 = assay: Antiproliferative activity against human NCI-H226 cells assessed as cell growth inhibition measured after 48 hrs by sulforhodamine B assay; details: NCI-H226, 48 h
M21 = assay: Antiproliferative activity against human M21 cells assessed as cell growth inhibition measured after 48 hrs in presence of uridine by SRB assay; details: M21, 48 h
HCT-15 = assay: Antiproliferative activity against human HCT-15 cells assessed as cell growth inhibition measured after 48 hrs by sulforhodamine B assay; details: HCT-15, 48 h
SK-MEL-2 = assay: Antiproliferative activity against human SK-MEL-2 cells assessed as cell growth inhibition measured after 48 hrs by sulforhodamine B assay; details: SK-MEL-2, 48 h
NCI-H522 = assay: Antiproliferative activity against human NCI-H522 cells assessed as cell growth inhibition measured after 48 hrs by sulforhodamine B assay; details: NCI-H522, 48 h
RXF 393 = assay: Antiproliferative activity against human RXF 393 cells assessed as cell growth inhibition measured after 48 hrs by sulforhodamine B assay; details: RXF 393, 48 h
SF-295 = assay: Antiproliferative activity against human SF-295 cells assessed as cell growth inhibition measured after 48 hrs by sulforhodamine B assay; details: SF-295, 48 h
LOX IMVI = assay: Antiproliferative activity against human LOX IMVI cells assessed as cell growth inhibition measured after 48 hrs by sulforhodamine B assay
HCC 2998 = assay: Antiproliferative activity against human HCC 2998 cells assessed as cell growth inhibition measured after 48 hrs by sulforhodamine B assay; details: HCC 2998, 48 h
[1] = tested on: Panel NCI-60 (60 carcinoma cell lines); assay: Antiproliferative activity against human Panel NCI-60 (60 carcinoma cell lines) assessed as cell growth inhibition measured after 48 hrs by SRB assay
ACHN = assay: Antiproliferative activity against human ACHN cells assessed as cell growth inhibition measured after 48 hrs by sulforhodamine B assay
MDA-MB-231 = assay: Antiproliferative activity against human MDA-MB-231/ATCC cells assessed as cell growth inhibition measured after 48 hrs by sulforhodamine B assay; details: MDA-MB-231, 48 h
KM12 = assay: Antiproliferative activity against human KM12 cells assessed as cell growth inhibition measured after 48 hrs by sulforhodamine B assay; details: KM12, 48 h
SF-268 = assay: Antiproliferative activity against human SF-268 cells assessed as cell growth inhibition measured after 48 hrs by sulforhodamine B assay; details: SF-268, 48 h
A498 = assay: Antiproliferative activity against human A498 cells assessed as cell growth inhibition measured after 48 hrs by sulforhodamine B assay; details: A498, 48 h
UACC-62 = assay: Antiproliferative activity against human UACC-62 cells assessed as cell growth inhibition measured after 48 hrs by sulforhodamine B assay; details: UACC-62, 48 h
HT-1080 = assay: Antiproliferative activity against human HT-1080 cells assessed as cell growth inhibition measured after 48 hrs in presence of uridine by SRB assay; details: HT-1080, 48 h
Malme-3M = assay: Antiproliferative activity against human Malme-3M cells assessed as cell growth inhibition measured after 48 hrs by sulforhodamine B assay
UACC-257 = assay: Antiproliferative activity against human UACC-257 cells assessed as cell growth inhibition measured after 48 hrs by sulforhodamine B assay; details: UACC-257, 48 h
DU-145 = assay: Antiproliferative activity against human DU-145 cells assessed as cell growth inhibition measured after 48 hrs by sulforhodamine B assay; details: DU-145, 48 h
CCRF-CEM = assay: Antiproliferative activity against human CCRF-CEM cells assessed as cell growth inhibition measured after 48 hrs by sulforhodamine B assay
U-251 = assay: Antiproliferative activity against human U-251 cells assessed as cell growth inhibition measured after 48 hrs by sulforhodamine B assay; details: U-251, 48 h
NCI/ADR-RES = assay: Antiproliferative activity against human NCI/ADR-RES cells assessed as cell growth inhibition measured after 48 hrs by sulforhodamine B assay

`CCNC(=O)Nc1ccc(S(=O)(=O)Oc2ccccc2CC)cc1` was tested, and the IC50 (SK-MEL-28) was 11.7 µM, the IC50 (T47D) was 16.2 µM and the IC50 (SR) was 0.741 µM. It also gave an IC50 (SW-620) of 2.75 µM, an IC50 (RPMI-8226) of 1.38 µM and an IC50 (SK-MEL-5) of 2.45 µM. For the same molecule, the IC50 (BT-549) was 11.7 µM, the IC50 (K562) was 0.282 µM and the IC50 (HT-29) was 27 µM. It also gave an IC50 (TK-10) of 13.2 µM, an IC50 (UO-31) of 6.03 µM and an IC50 (NCI-H226) of 9.33 µM. The IC50 (M21) was 30 µM, the IC50 (HCT-15) was 0.251 µM and the IC50 (SK-MEL-2) was 16.2 µM. It also gave an IC50 (NCI-H522) of 1.32 µM, an IC50 (RXF 393) of 12.6 µM and an IC50 (SF-295) of 0.759 µM. It also gave an IC50 (LOX IMVI) of 0.417 µM, an IC50 (HCC 2998) of 17 µM and an IC50 [1] of 3.5 µM. It also gave an IC50 (ACHN) of 1.58 µM, an IC50 (MDA-MB-231) of 11.7 µM and an IC50 (KM12) of 1.15 µM. It also gave an IC50 (SF-268) of 2.88 µM, an IC50 (A498) of 5.89 µM and an IC50 (UACC-62) of 2.51 µM. The IC50 (HT-1080) was 7.4 µM, the IC50 (Malme-3M) was 17.8 µM and the IC50 (UACC-257) was 13.2 µM. It also gave an IC50 (DU-145) of 1.23 µM, an IC50 (CCRF-CEM) of 0.912 µM and an IC50 (U-251) of 0.617 µM. For the same molecule, the IC50 (NCI/ADR-RES) was 3.55 µM.
